Data reported in US20110301104A1, “Transition state structure of orotate phosphoribosyl transferases and uses thereof” (priority 2008, published 2011).
Where two headings read alike, the source gives them in different places.

How the values were obtained:
Assay type in all cases: biochemical
PfOPRT [1] = biological target: T1, PfOPRT (Plasmodium falciparum, UniProt Q8I3Y0); assay: PfOPRT kinetic and inhibition assay (OMP with PA or PPi)
T1 construct: His6 (thrombin-cleavable) (N, cleaved yes); made in house; host or cells: E. coli BL21-AI
T1 sequence (Q8I3Y0 1-281): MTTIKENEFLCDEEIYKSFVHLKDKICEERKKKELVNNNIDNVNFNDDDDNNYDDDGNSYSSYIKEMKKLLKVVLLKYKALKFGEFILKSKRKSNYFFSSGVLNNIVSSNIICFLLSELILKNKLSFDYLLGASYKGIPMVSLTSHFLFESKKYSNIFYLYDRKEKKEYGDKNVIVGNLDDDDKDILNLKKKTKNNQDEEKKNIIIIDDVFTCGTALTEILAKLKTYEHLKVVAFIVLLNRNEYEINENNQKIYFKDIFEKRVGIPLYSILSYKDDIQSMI
Method: (§1) Expression and Purification of PfOPRT and HsOPRT. The pDEST14 vectors encoding the two OPRT genes were transformed into BL21-AI E. coli competent cells and grown in LB+Amp (100 μg mL^−1) at 37° C. to an OD600 of 0.6. Protein expression was induced by adding 0.02% L-arabinose with overnight growth at 37° C. Cells were harvested by centrifugation at 4° C., weighted and resuspended in lysis buffer (20 mM Tris-HCl, 500 mM NaCl and 5 mM Imidazole, pH=7.9, 3 mL/gram cell pellet). Lysozyme (100 μg mL^−1), DNase I (10 μg mL^−1) and protease inhibitor (1 tablet/8 grams of cells) (Roche Applied Science, Indianapolis, Ind.) were added to the solution. Following disruption in a French Press, cell lysate was centrifuged at 30,000 g for […] at 4° C. […] The 6×His-OPRTs were eluted with a gradient of imidazole (20 mM ˜500 mM). The OPRT bands were visualized on SDS-PAGE gels and fractions with high purity were pooled, made to 10% glycerol and 10 mM β-ME (final concentration), concentrated and dialyzed overnight at 4° C. to remove imidazole. His-tags were removed during dialysis by the presence of thrombin (1 unit/0.1 mg). His-tag free OPRTs were purified by Superdex 200 26/60 Gel filtration column, concentrated and stored at −80° C. […] Reactions were monitored by the absorbance increase at 295 nm to give an extinction coefficient of 3.67 mM^−1 cm^−1.

HsOPRT [2] = biological target: T2, HsOPRT (Homo sapiens, UniProt P11172); assay: HsOPRT catalytic activity with p-nitrophenyl β-D-ribose 5′-phosphate as substrate; conditions: with PA or pyrophosphate; absorbance at 400 nm
T2 construct: This HsUMPase truncation construct only expresses its HsOPRT domain; His6 (thrombin-cleavable) (N, cleaved yes); made in house; host or cells: E. coli BL21-AI
T2 sequence (P11172 1-245): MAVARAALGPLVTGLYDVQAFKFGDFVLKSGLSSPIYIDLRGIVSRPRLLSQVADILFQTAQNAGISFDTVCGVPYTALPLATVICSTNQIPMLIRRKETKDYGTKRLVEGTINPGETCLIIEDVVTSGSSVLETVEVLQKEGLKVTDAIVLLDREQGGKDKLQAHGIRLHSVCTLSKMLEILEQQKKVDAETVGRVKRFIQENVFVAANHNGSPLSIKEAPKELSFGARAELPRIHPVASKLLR
Method: (§2) The PfOPRT and HsOPRT catalytic activities with p-nitrophenyl β-D-ribose 5′-phosphate were measured at 25° C. in solutions containing 50 mM Tris-HCl (pH=8.0), 5 mM MgCl2 and varied concentrations of p-nitrophenyl β-D-ribose 5′-phosphate and PA or pyrophosphate. Reaction rates were monitored through the absorbance increase at 400 nm.

PfOPRT [3] = biological target: T1, PfOPRT; assay: PfOPRT catalytic activity with p-nitrophenyl β-D-ribose 5′-phosphate as substrate; conditions: with PA or pyrophosphate; absorbance at 400 nm; conditions could detect 10^−6 of normal activity
Method: as §2

HsOPRT [4] = biological target: T2, HsOPRT; assay: HsOPRT kinetic and inhibition assay (OMP with PA or PPi)
Method: as §1

[5] = competitive inhibition with respect to OMP, PPi as substrate, 25° C., pH 8.0

Compound: O=[N+]([O-])c1ccc(O[C@@H]2O[C@H](COP(=O)(O)O)[C@@H](O)[C@H]2O)cc1 [p-nitrophenyl β-D-ribose 5′-phosphate]
- Ki (PfOPRT [1]): 40 nM
- Km/Ki (PfOPRT [1]; Km of OMP over Ki of inhibitor): 93
- catalytic activity as substrate (O-glycosidic bond cleavage) (HsOPRT [2]): Poor catalytic activity
- catalytic activity as substrate (O-glycosidic bond cleavage) (PfOPRT [3]): did not catalyze the O-glycosidic bond cleavage
- Ki (HsOPRT [4]): 41 nM
- Km/Ki (HsOPRT [4]; Km of OMP over Ki of inhibitor): 38

Compound: O=[N+]([O-])c1ccc(O[C@@H]2O[C@H](CO)[C@@H](O)[C@H]2O)cc1 [p-nitrophenyl β-D-ribose, reference compound]
- Ki (PfOPRT [1]; [5]): 188 nM
- Ki (HsOPRT [4]; [5]): 121 nM

Compound: O=C(O)c1cc(=O)[nH]c(=O)n1[C@@H]1O[C@H](COP(=O)(O)O)[C@@H](O)[C@H]1O [OMP, orotidine 5′-monophosphate, reference compound]
- reduction of kcat/Km with PA relative to PPi as the nucleophile (PfOPRT [1]; OMP, PA versus PPi): 110 fold
- reduction of kcat/Km with PA relative to PPi as the nucleophile (HsOPRT [4]; OMP, PA versus PPi): 8.3 fold
